Read-outs that look alike come from different tables or passages of the source.
Assays:
[1] = target: T1, human LXRβ (Homo sapiens, UniProt P55055); experiment: Ligand-binding test procedure for human LXRβ (3H T0901317 tracer, flash plates)
T1 construct: biotin (biotinylated); made in house; host or cells: E. coli (crude extract)
T1 sequence (P55055 1-460): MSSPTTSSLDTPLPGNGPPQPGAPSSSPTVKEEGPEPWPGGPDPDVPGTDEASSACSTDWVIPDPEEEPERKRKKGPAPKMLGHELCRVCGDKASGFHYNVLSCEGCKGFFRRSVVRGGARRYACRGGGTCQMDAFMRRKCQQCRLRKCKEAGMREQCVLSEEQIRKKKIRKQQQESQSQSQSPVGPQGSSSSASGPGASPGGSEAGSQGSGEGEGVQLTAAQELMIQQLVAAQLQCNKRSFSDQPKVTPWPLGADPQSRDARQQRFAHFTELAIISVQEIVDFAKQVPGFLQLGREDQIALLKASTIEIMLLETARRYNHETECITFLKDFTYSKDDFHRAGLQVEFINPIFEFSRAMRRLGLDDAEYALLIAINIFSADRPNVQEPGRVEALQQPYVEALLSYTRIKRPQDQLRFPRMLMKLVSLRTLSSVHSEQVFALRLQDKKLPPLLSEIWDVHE

[2] = target: T2, human LXRα (Homo sapiens, UniProt Q13133); experiment: Ligand-binding test procedure for human LXRα (3H T0901317 tracer, flash plates); details: biotinylated hLXRα, tracer 3H T0901317
T2 construct: biotin (biotinylated); made in house; host or cells: E. coli (crude extract)
T2 sequence (Q13133 1-447): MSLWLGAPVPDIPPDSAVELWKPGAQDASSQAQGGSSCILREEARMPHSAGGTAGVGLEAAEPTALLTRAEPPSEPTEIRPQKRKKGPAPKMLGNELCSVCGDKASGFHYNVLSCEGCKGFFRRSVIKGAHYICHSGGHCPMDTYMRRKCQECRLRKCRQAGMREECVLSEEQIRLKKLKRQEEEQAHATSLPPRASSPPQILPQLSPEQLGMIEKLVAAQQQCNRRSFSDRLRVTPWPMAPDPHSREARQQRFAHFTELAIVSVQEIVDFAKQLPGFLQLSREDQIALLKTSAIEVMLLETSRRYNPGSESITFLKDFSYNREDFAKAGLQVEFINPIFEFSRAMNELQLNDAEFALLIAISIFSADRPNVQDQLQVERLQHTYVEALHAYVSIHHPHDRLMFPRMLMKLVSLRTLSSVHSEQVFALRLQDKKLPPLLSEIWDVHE

[3] = system: ABCA1 gene; experiment: Quantitative analysis of ABCA1 gene regulation in THP-1 cells (real-time PCR); assay type: cell-based, human; details: read-out: EC50 ABCA1
Procedure: The compounds of formula (I) effect on the regulation of the ABCA1 gene was evaluated using the following procedure.
The THP-1 monocytic cell line (ATCC # TIB-202) was obtained from American Type Culture Collection (Manassas, Va.) and cultured in RPMI 1640 medium (Gibco, Carlsbad, Calif.) containing 10% FBS, 2 mM L-glutamine, and 55 uM beta-Mercaptoethanol (BME). […] Differentiated THP-1 cells were treated with test compounds or ligands dissolved in DMSO (Sigma, D-8779) in culture medium lacking phorbal ester. […] Unstimulated cells treated with vehicle were included as negative controls on each plate. An LXR agonist reference, N-(2,2,2-trifluoro-ethyl)-N-[4-(2,2,2-trifluoro-1-hydroxy-1-trifluoromethyl-ethyl)-phenyl]-benzenesulfonamide (Schultz, Joshua R., Genes & Development (2000), 14(22), 2831-2838), was dosed at 1.0 uM and served as a positive control. […] Results of antagonist analysis are expressed as % antagonism and IC50 (in μM).
Total cellular RNA was isolated from treated cells cultured in 96-well plates using PrepStation 6100 (Applied Biosystems, Foster City, Calif.), according to the manufacturer's recommendations. RNA was resuspended in ribonuclease-free water and stored at −70° C. prior to analysis. RNA concentrations were quantitated with RiboGreen test procedure, #R-11490 (Molecular Probes, Eugene, Oreg.).
Gene-specific mRNA quantitation was performed by real-time PCR with the Perkin Elmer Corp. chemistry on an ABI Prism 7700 Sequence detection system (Applied Biosystems, Foster City, Calif.) according to the manufacturer's instructions. Samples (50-100 ng) of total RNA were assayed in duplicate or triplicate in 50 μl reactions using one-step RT-PCR and the standard curve method to estimate specific mRNA concentrations. Sequences of gene-specific primer and probe sets were designed with Primer Express Software (Applied Biosystems, Foster City, Calif.). […] RT and PCR reactions were performed according to PE Applied Biosystem's protocol for Taqman Gold RT-PCR or Qiagen's protocol for Quantitect probe RT-PCR. Relative levels of ABCA1 mRNA are normalized using GAPDH mRNA or 18S rRNA probe/primer sets purchased commercially (Applied Biosystems, Foster City, Calif.).
Mean, standard deviation and statistical significance of duplicate evaluations of RNA samples were assessed using ANOVA, one-way analysis of variance using SAS analysis.

[4] = Gene regulation by LXR (Human), differentiated THP-1 cells, 18 hrs, ABCA1 mRNA

| Compound | IC50 [1] | IC50 [2] | EC50 ([3]; Homo sapiens, THP-1, 18 h) | EC50 [3, 4] |
| --- | --- | --- | --- | --- |
| CS(=O)(=O)c1cc(F)cc(Oc2ccc(Cl)c(-n3cnc4c(C(F)(F)F)cccc43)c2)c1 [Example 82, 1-{2-chloro-5-[3-fluoro-5-(methylsulfonyl)phenoxy]phenyl}-4-(trifluoromethyl)-1H-benzimidazole] | 4.9 nM | 102 nM | 1210 nM | – |
| CC(C)S(=O)(=O)c1cccc(Oc2ccc(-n3c(C(F)(F)F)nc4c(C(F)(F)F)cccc43)cc2)c1 [Example 73, 1-{4-[3-(isopropylsulfonyl)phenoxy]phenyl}-2,4-bis(trifluoromethyl)-1H-benzimidazole] | 47 nM | 800 nM | – | 470 nM |
| Cc1nc2c(C(F)(F)F)cccc2n1-c1cccc(-c2cccc(S(C)(=O)=O)c2)c1 [Example 75, 2-methyl-1-[3′-(methylsulfonyl)biphenyl-3-yl]-4-(trifluoromethyl)-1H-benzimidazole] | 12.7 nM | 304 nM | 215 nM | – |
| Cc1nc2c(C(F)(F)F)cccc2n1-c1ccc(Oc2cc(F)cc(S(C)(=O)=O)c2)cc1 [Example 66, 1-{4-[3-fluoro-5-(methylsulfonyl)phenoxy]phenyl}-2-methyl-4-(trifluoromethyl)-1H-benzimidazole] | 51 nM | 261 nM | – | 355 nM |
| CCc1nc2c(C(F)(F)F)cccc2n1-c1ccc(Oc2cccc(S(C)(=O)=O)c2)cc1 [Example 67, 2 ethyl-1-{4-[3-(methylsulfonyl)phenoxy]phenyl}-4-(trifluoromethyl)-1H-benzimidazole] | 99 nM | 197 nM | – | 846 nM |
| Cc1cc(Oc2cccc(S(=O)(=O)C(C)C)c2)ccc1-n1c(C)nc2c(C(F)(F)F)cccc21 [Example 95, 2-methyl-1-(2-methyl-4-{3-[(1-methylethyl)sulfonyl]phenoxy}phenyl)-4-(trifluoromethyl)-1H-benzimidazole] | 61 nM | 1290 nM | – | 409 nM |
| CS(=O)(=O)c1ccc(Oc2ccc(Cl)c(-n3cnc4c(C(F)(F)F)cccc43)c2)cc1 [Example 83, 1-{2-chloro-5-[4-(methylsulfonyl)phenoxy]phenyl}-4-(trifluoromethyl)-1H-benzimidazole] | 33 nM | 277 nM | 110 nM | – |
| CCS(=O)(=O)c1cccc(Oc2ccc(-n3c(C)nc4c(C(F)(F)F)cccc43)cc2)c1 [Example 65, 1-{4-[3-(ethylsulfonyl)phenoxy]phenyl}-2-methyl-4-(trifluoromethyl)-1H-benzimidazole] | 1.3 nM | 7.2 nM | – | 355 nM |
| Cc1nc2c(C(F)(F)F)cccc2n1-c1cccc(Oc2cccc(S(=O)(=O)C3CC3)c2)c1 [Example 38, 1-{3-[3-(cyclopropylsulfonyl)phenoxy]phenyl}-2-methyl-4-(trifluoromethyl)-1H-benzimidazole] | 5.8 nM | 141 nM | – | 650 nM |
| Cc1nc2c(C(F)(F)F)cccc2n1-c1cccc(OCc2cccc(S(C)(=O)=O)c2)c1 [Example 107, 2-methyl-1-(3-{[3-(methylsulfonyl)benzyl]oxy}phenyl)-4-(trifluoromethyl)-1H-benzimidazole] | 120 nM | 1960 nM | – | 3530 nM |
| Cc1nc2c(C(F)(F)F)cccc2n1-c1cccc(Oc2cccc(S(=O)(=O)CCCS(C)(=O)=O)c2)c1 [Example 76, 2-methyl-1-[3-(3-{[3-(methylsulfonyl)propyl]sulfonyl}phenoxy)phenyl]-4-(trifluoromethyl)-1H-benzimidazole] | 20 nM | 319 nM | 155 nM | – |
| Cc1nc2c(Cl)cccc2n1-c1cccc(Oc2ccc(S(C)(=O)=O)cc2)c1 [Example 48, 4-chloro-2-methyl-1-{3-[4-(methylsulfonyl)phenoxy]phenyl}-1H-benzimidazole] | 6 nM | 64 nM | 1120 nM | – |
| CCc1nc2c(C(F)(F)F)cccc2n1-c1ccc(Oc2cc(F)cc(S(C)(=O)=O)c2)cc1 [Example 69, 2-ethyl-1-{4-[3-fluoro-5-(methylsulfonyl)phenoxy]-phenyl}-4-(trifluoromethyl)-1H-benzimidazole] | 20 nM | 280 nM | – | 245 nM |

From patent US20110034526A1, “Benzimidazole Compounds” (Wyeth LLC, priority 2007, published 2011)
